In patent US20170334899A1, “AMINO-SUBSTITUTED ISOTHIAZOLES” (Bayer Pharma Aktiengesellschaft, priority 2014, published 2017):

Biological target: T1, catalytic domain of human Bub1 (amino acids 704-1085) (Homo sapiens, UniProt O43683)
T1 construct: catalytic domain of human Bub1 (amino acids 704-1085); His6 (N); made in house; host or cells: insect cells (Hi5)
Assay: Bub1 kinase assay (TR-FRET)
Type: biochemical
Settings: 10 μM ATP, avg, read-out: Bub1 avg (IC50 [mol/l])
Method in brief: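 Readout is the 665/620 nm TR-FRET ratio from anti-phosphoserine antibody, Eu-labelled anti-mouse IgG and streptavidin-XL665, scaled between no-enzyme and uninhibited controls. Reaction: 1 μM biotinylated peptide, 10 μM ATP, 60 min, 22 °C, after 15 min compound preincubation with His6-Bub1 (704-1085, insect-expressed, ~200 ng/ml).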

T1 sequence (O43683 704-1085): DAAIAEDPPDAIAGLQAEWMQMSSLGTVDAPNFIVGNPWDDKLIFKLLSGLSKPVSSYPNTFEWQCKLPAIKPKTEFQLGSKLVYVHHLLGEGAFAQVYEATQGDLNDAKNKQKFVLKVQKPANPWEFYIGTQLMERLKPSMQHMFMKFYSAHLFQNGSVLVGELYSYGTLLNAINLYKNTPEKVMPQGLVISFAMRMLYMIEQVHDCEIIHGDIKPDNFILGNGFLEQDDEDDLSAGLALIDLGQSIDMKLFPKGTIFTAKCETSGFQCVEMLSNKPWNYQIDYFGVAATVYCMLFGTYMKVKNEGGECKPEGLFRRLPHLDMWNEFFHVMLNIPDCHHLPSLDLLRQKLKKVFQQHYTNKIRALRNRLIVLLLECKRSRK

| IC50 [µM] | Structure (SMILES) |
| --- | --- |
| > 20 | Cc1nsc(Nc2cnc(C(F)(F)F)cn2)c1C(=O)Nc1ccc(OC[C@H]2CCN(CC(F)(F)F)C2)nc1 [Example 404, 3-Methyl-N-(6-{[(3S)-1-(2,2,2-trifluoroethyl)pyrrolidin-3-yl]methoxy}pyridin-3-yl)-5-{[5-(trifluoromethyl)pyrazin-2-yl]amino}-1,2-thiazole-4-carboxamide] |
| > 20 | Cc1nsc(Nc2ccc(C#N)cn2)c1C(=O)Nc1ccc(OC[C@H]2CCN(CC(F)(F)F)C2)nc1 [Example 405, 5-[(5-Cyanopyridin-2-yl)amino]-3-methyl-N-(6-{[(35)-1-(2,2,2-trifluoroethyl)pyrrolidin-3-yl]methoxy}pyridin-3-yl)-1,2-thiazole-4-carboxamide] |
| > 20 | CCN1CCC(Oc2ccc(NC(=O)c3c(C)nsc3Nc3cnc(C(F)(F)F)cn3)cn2)C(F)(F)C1 (stereo not shown) [Example 406, N-{6-[(1-Ethyl-3,3-difluoropiperidin-4-yl)oxy]pyridin-3-yl}-3-methyl-5-{[5-(trifluoromethyl)pyrazin-2-yl]amino}-1,2-thiazole-4-carboxamide] |
| > 20 | Cc1nsc(Nc2cnc(C(F)(F)F)cn2)c1C(=O)Nc1ccc(OCCN2CCC(F)(F)CC2)nc1 [Example 407, N-{6-[2-(4,4-Difluoropiperidin-1-yl)ethoxy]pyridin-3-yl}-3-methyl-5-{[5-(trifluoromethyl)pyrazin-2-yl]amino}-1,2-thiazole-4-carboxamide] |
| > 20 | CCCN1C[C@H](F)[C@H](Oc2ccc(NC(=O)c3c(C)nsc3Nc3cnc(C(F)(F)F)cn3)cn2)C1 [Example 408, N-(6-{[(3R,4S)-4-Fluoro-1-propylpyrrolidin-3-yl]oxy}pyridin-3-yl)-3-methyl-5-{[5-(trifluoromethyl)pyrazin-2-yl]amino}-1,2-thiazole-4-carboxamide] |
| > 20 | Cc1nsc(Nc2cnc(C(F)(F)F)cn2)c1C(=O)Nc1ccc(O[C@@H]2CN(CCC(F)(F)F)C[C@@H]2F)nc1 [Example 409, N-(6-{[(3R,4S)-4-Fluoro-1-(3,3,3-trifluoropropyl)pyrrolidin-3-yl]oxy}pyridin-3-yl)-3-methyl-5-{[5-(trifluoromethyl)pyrazin-2-yl]amino}-1,2-thiazole-4-carboxamide] |
| > 20 | Cc1nsc(Nc2cnc(C(F)(F)F)cn2)c1C(=O)Nc1ccc(O[C@@H]2CN(CC(F)(F)F)C[C@@H]2F)nc1 [Example 410, N-(6-{[(3R,4S)-4-Fluoro-1-(2,2,2-trifluoroethyl)pyrrolidin-3-yl]oxy}pyridin-3-yl)-3-methyl-5-{[5-(trifluoromethyl)pyrazin-2-yl]amino}-1,2-thiazole-4-carboxamide] |
| > 20 | Cc1nsc(Nc2cnc(C(F)(F)F)cn2)c1C(=O)Nc1ccc(O[C@@H]2CN(CC(F)F)C[C@@H]2F)nc1 [Example 411, N-(6-{[(3R,4S)-1-(2,2-Difluoroethyl)-4-fluoropyrrolidin-3-yl]oxy}pyridin-3-yl)-3-methyl-5-{[5-(trifluoromethyl)pyrazin-2-yl]amino}-1,2-thiazole-4-carboxamide] |
| > 20 | Cc1nsc(Nc2cnc(C(F)(F)F)cn2)c1C(=O)Nc1ccc(F)c(O[C@@H]2CCN(CC(F)F)C2)c1 [Example 412, N-(3-{[(3R)-1-(2,2-Difluoroethyl)pyrrolidin-3-yl]oxy}-4-fluorophenyl)-3-methyl-5-{[5-(trifluoromethyl)pyrazin-2-yl]amino}-1,2-thiazole-4-carboxamide] |
| > 20 | Cc1nsc(Nc2cnc(C(F)(F)F)cn2)c1C(=O)Nc1ccc(F)c(O[C@@H]2CCN(CC(F)(F)F)C2)c1 [Example 413, N-(4-Fluoro-3-{[(3R)-1-(2,2,2-trifluoroethyl)pyrrolidin-3-yl]oxy}phenyl)-3-methyl-5-{[5-(trifluoromethyl)pyrazin-2-yl]amino}-1,2-thiazole-4-carboxamide] |
